Values joined by “and” are separate entries in the source; they are usually repeats but may differ in a detail not shown here. Identical values can stand only once. Toxic doses and inconclusive results are not listed. No stated cut-off is given here; in the data, active means T/C of 150% or more; inactive means T/C below 125%.
Tested on: L1210 leukemia ip in BDF1 mice, survival T/C
Assay: NCI In Vivo Anticancer Drug Screen. Data for tumor model L1210 Leukemia (intraperitoneal) in B6D2F1 (BDF1) mice
Settings: endpoint: mean survival time, higher = longer survival
Summary of the method: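 Tumor was transplanted into mice, which were then dosed with test compound or vehicle alone. Survival was recorded for each group, and the treated figure was expressed relative to the control figure.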

[1] = dose: 100.0 mg/kg/injection, schedule: Q04DX003 (ip), vehicle: Klucel (hydroxypropylcellulose) (HPC)
[2] = dose: 200.0 mg/kg/injection, schedule: Q04DX003 (ip), vehicle: Klucel (hydroxypropylcellulose) (HPC)
[3] = dose: 400.0 mg/kg/injection, schedule: Q04DX003 (ip), vehicle: Klucel (hydroxypropylcellulose) (HPC)
[4] = dose: 50.0 mg/kg/injection, schedule: Q01DX009 (ip), vehicle: saline with Tween-80
[5] = dose: 100.0 mg/kg/injection, schedule: Q01DX009 (ip), vehicle: saline with Tween-80
[6] = dose: 100.0 mg/kg/injection, schedule: Q04DX003 (ip), vehicle: saline with Tween-80
[7] = dose: 200.0 mg/kg/injection, schedule: Q01DX009 (ip), vehicle: saline with Tween-80
[8] = dose: 200.0 mg/kg/injection, schedule: Q04DX003 (ip), vehicle: saline with Tween-80
[9] = dose: 400.0 mg/kg/injection, schedule: Q01DX009 (ip), vehicle: saline with Tween-80
[10] = dose: 400.0 mg/kg/injection, schedule: Q04DX003 (ip), vehicle: saline with Tween-80
[11] = dose: 100.0 mg/kg/injection, schedule: Q01DX009 (ip), vehicle: Klucel (hydroxypropylcellulose) (HPC)
[12] = dose: 200.0 mg/kg/injection, schedule: Q01DX009 (ip), vehicle: Klucel (hydroxypropylcellulose) (HPC)
[13] = dose: 400.0 mg/kg/injection, schedule: Q01DX009 (ip), vehicle: Klucel (hydroxypropylcellulose) (HPC)
[14] = dose: 100.0 mg/kg/injection, schedule: Q01DX001 (ip), vehicle: carboxymethylcellulose (CMC)
[15] = dose: 25.0 mg/kg/injection, schedule: Q04DX003 (ip), vehicle: Klucel (hydroxypropylcellulose) (HPC)

Measured: T/C

O=C1C=C(c2ccccc2)C(O)(c2ccccc2)O1 (configuration not stated)
inactive: dose: 100.0 mg/kg/injection, schedule: Q01DX001 (ip), vehicle: saline with Tween-80 106 % of control | dose: 200.0 mg/kg/injection, schedule: Q01DX001 (ip), vehicle: saline with Tween-80 103 % of control | dose: 400.0 mg/kg/injection, schedule: Q01DX001 (ip), vehicle: saline with Tween-80 101 % of control

Cc1ncc(C(O)c2ccc(Cl)cc2)n1Cc1ccccc1 (configuration not stated)
inactive: [1] 100 % of control | [2] 94 % of control | [3] 104 % of control

O=C1OC2C(I)C3CC1C2C3 (configuration not stated)
inactive: [4] 96 % of control | [5] 95 % of control

FC(F)(F)c1ccc2c(c1)N(CCCN1CCN(CCC3OCCCO3)CC1)c1ccccc1S2
inactive: dose: 0.78 mg/kg/injection, schedule: Q04DX003 (ip), vehicle: saline 102 % of control | dose: 1.56 mg/kg/injection, schedule: Q04DX003 (ip), vehicle: saline 101 % of control | dose: 3.12 mg/kg/injection, schedule: Q04DX003 (ip), vehicle: saline 102 % of control | dose: 6.25 mg/kg/injection, schedule: Q04DX003 (ip), vehicle: saline 96 % of control | dose: 12.5 mg/kg/injection, schedule: Q04DX003 (ip), vehicle: saline 112 % of control

Cc1nnc(Cl)c2ccccc12
inactive: dose: 100.0 mg/kg/injection, schedule: Q01DX001 (ip), vehicle: saline 95 % of control

CCOc1ccc(Br)cc1/C=N/NS(=O)(=O)c1ccc(C)cc1
inactive: [5] 94 % of control | [6] 97 % of control | [7] 97 % of control | [8] 103 % of control | [9] 101 % of control | [10] 103 % of control

O=C(COc1ccccc1Cl)NCc1ccc(Cl)cc1
inactive: [11] 92 % of control | [1] 93 % of control | [12] 88 % of control | [2] 95 % of control | [13] 103 % of control | [3] 93 % of control

CCOP(=O)(OCC)OC(=O)N(CC)CC
inactive: dose: 100.0 mg/kg/injection, schedule: Q04DX002 (ip), vehicle: saline 112 % of control | dose: 200.0 mg/kg/injection, schedule: Q04DX002 (ip), vehicle: saline 120 % of control

CC(C)(CO)CN1CCCCC1
inactive: [4] 93 % of control | [5] 93 % of control

Cc1ccc(C(O)(c2ccccc2)c2ccccc2C(=O)Nc2ccccc2)cc1 (configuration not stated)
inactive: [5] 95 % of control | [7] 90 % of control | [9] 92 % of control

O=C(c1ccccc1)c1cc(CN(CCCl)CCCl)c(O)cc1O
inactive: [14] 106 % of control | dose: 200.0 mg/kg/injection, schedule: Q01DX001 (ip), vehicle: carboxymethylcellulose (CMC) 117 % of control | dose: 400.0 mg/kg/injection, schedule: Q01DX001 (ip), vehicle: carboxymethylcellulose (CMC) 122 % of control

O=C(Nc1nccs1)c1cccc(F)c1
inactive: [11] 104 % of control | [12] 110 % of control | [13] 112 % of control

C/C=C1/C[C@@H](C)[C@@](C)(O)C(=O)OCC2=CCN3CC[C@@H](OC1=O)[C@@H]23
inactive: dose: 10.0 mg/kg/injection, schedule: Q01DX015 (ip), vehicle: carboxymethylcellulose (CMC) 93 % of control | dose: 20.0 mg/kg/injection, schedule: Q01DX015 (ip), vehicle: carboxymethylcellulose (CMC) 96 % of control | dose: 30.0 mg/kg/injection, schedule: Q01DX015 (ip), vehicle: carboxymethylcellulose (CMC) 98 % of control | [14] 105 % of control

O=C(N/N=C\c1ccc([N+](=O)[O-])cc1)c1ccncc1
inactive: [5] 94 % of control | [7] 94 % of control | [9] 98 % of control

Cc1ccc(S(=O)(=O)N(C)c2ccc(C#N)c(Cl)c2Cl)cc1
inactive: [6] 98 % of control | [8] 96 % of control | [10] 98 % of control

CN=C(NC)c1cccc(NC(=O)c2ccc(C(=O)Nc3cccc(C(=NC)NC)c3)c(N)c2)c1
inactive: dose: 0.5 mg/kg/injection, schedule: Q01DX015 (ip), vehicle: water 102 % of control | dose: 1.0 mg/kg/injection, schedule: Q01DX015 (ip), vehicle: water 102 % of control | dose: 2.0 mg/kg/injection, schedule: Q01DX015 (ip), vehicle: water 110 % of control | dose: 3.75 mg/kg/injection, schedule: Q01DX Z (ip), vehicle: water 91 % of control | dose: 4.0 mg/kg/injection, schedule: Q01DX015 (ip), vehicle: water 102 % of control | dose: 7.5 mg/kg/injection, schedule: Q01DX Z (ip), vehicle: water 87 % of control | dose: 15.0 mg/kg/injection, schedule: Q01DX Z (ip), vehicle: water 93 % of control

CC(=O)C1CCC2C3CCC4(C)CC(=O)CCC4(C)C3C3OC3C12C (configuration not stated)
inactive: dose: 100.0 mg/kg/injection, schedule: Q04DX003 (sc), vehicle: steriod suspending solution 98 % of control | dose: 200.0 mg/kg/injection, schedule: Q04DX003 (sc), vehicle: steriod suspending solution 96 % of control | dose: 400.0 mg/kg/injection, schedule: Q04DX003 (sc), vehicle: steriod suspending solution 102 % of control

COC(=O)/C=C(/Oc1cccc(C)c1)C(=O)OC
inactive: dose: 100.0 mg/kg/injection, schedule: Q04DX003 (ip), vehicle: other 101 % of control | dose: 200.0 mg/kg/injection, schedule: Q04DX003 (ip), vehicle: other 96 % of control | dose: 400.0 mg/kg/injection, schedule: Q04DX003 (ip), vehicle: other 96 % of control

CCCCn1cnc2c(SSc3ncnc4c3ncn4CCCC)ncnc21
inactive: dose: 37.5 mg/kg/injection, schedule: Q01DX Z (ip), vehicle: saline 109 % of control | dose: 150.0 mg/kg/injection, schedule: Q01DX Z (ip), vehicle: saline 124 % of control | dose: 166.0 mg/kg/injection, schedule: Q04DX003 (ip), vehicle: gum acacia 121 % of control

c1ccc(CC2SCCCS2)cc1
inactive: [5] 103 % of control | [6] 108 % of control | [7] 88 % of control | [8] 95 % of control | [9] 99 % of control | [10] 95 % of control

Clc1ccccc1Nc1ccnc(SCc2ccccc2)n1
inactive: dose: 25.0 mg/kg/injection, schedule: Q01DX001 (ip), vehicle: DMSO 93 % of control | dose: 25.0 mg/kg/injection, schedule: Q04DX003 (ip), vehicle: DMSO 96 % of control | dose: 50.0 mg/kg/injection, schedule: Q01DX001 (ip), vehicle: DMSO 100 % of control | dose: 50.0 mg/kg/injection, schedule: Q04DX003 (ip), vehicle: DMSO 95 % of control | dose: 100.0 mg/kg/injection, schedule: Q01DX001 (ip), vehicle: DMSO 88 % of control and 92 % of control | dose: 100.0 mg/kg/injection, schedule: Q04DX003 (ip), vehicle: DMSO 93 % of control

CC(=O)[O][Hg][c]1cc(C)cc([N+](=O)[O-])c1O
inactive: dose: 6.25 mg/kg/injection, schedule: Q01DX009 (ip), vehicle: Klucel (hydroxypropylcellulose) (HPC) 94 % of control | dose: 12.5 mg/kg/injection, schedule: Q01DX009 (ip), vehicle: Klucel (hydroxypropylcellulose) (HPC) 100 % of control | dose: 12.5 mg/kg/injection, schedule: Q04DX003 (ip), vehicle: Klucel (hydroxypropylcellulose) (HPC) 100 % of control | dose: 25.0 mg/kg/injection, schedule: Q01DX009 (ip), vehicle: Klucel (hydroxypropylcellulose) (HPC) 92 % of control | [15] 95 % of control

CC(C)CC(NC(=O)C1(N)C2CC3CC(C2)CC1C3)C(=O)O (configuration not stated)
inactive: dose: 22.5 mg/kg/injection, schedule: Q01DX009 (ip), vehicle: Klucel (hydroxypropylcellulose) (HPC) 100 % of control | dose: 45.0 mg/kg/injection, schedule: Q01DX009 (ip), vehicle: Klucel (hydroxypropylcellulose) (HPC) 103 % of control | dose: 90.0 mg/kg/injection, schedule: Q01DX009 (ip), vehicle: Klucel (hydroxypropylcellulose) (HPC) 97 % of control | [11] 108 % of control | [12] 107 % of control | [13] 100 % of control

Cc1ccc2c(c1)SCc1c-2[nH]c2ccccc12
inactive: [6] 103 % of control | [8] 100 % of control | [10] 108 % of control

C[n+]1c(/C=C/c2ccc3c(c2)OCO3)ccc2ccccc21
inactive: dose: 25.0 mg/kg/injection, schedule: Q01DX009 (ip), vehicle: saline with Tween-80 108 % of control | [15] 106 % of control | dose: 33.0 mg/kg/injection, schedule: Q01DX009 (ip), vehicle: gum acacia 114 % of control | dose: 50.0 mg/kg/injection, schedule: Q01DX009 (ip), vehicle: gum acacia 98 % of control | dose: 50.0 mg/kg/injection, schedule: Q04DX003 (ip), vehicle: Klucel (hydroxypropylcellulose) (HPC) 101 % of control | [1] 95 % of control and 89 % of control

Reference: PubChem BioAssay AID248 (DTP/NCI, 2004)
